The numbers were not newly measured in patent US8158770B2, “Content dependent inhibitors of cytidine deaminases and uses thereof” (University of Rochester, priority 2004, dated 2012), which cites them from elsewhere.

The conditions of series [1]: by comparison to 5-aza-dC and ara-C.
The conditions of series [2]: by comparison to 5-aza-dC and ara-C. The source holds these as a separate data set.

Take `O=c1ncccn1[C@@H]1O[C@H](CO)[C@@H](O)[C@H]1O` [zebularine, 1-(beta-D-ribofuranosyl)-1,2-dihydropyrmidin-2-one]: in series [1], the “chemically stable in aqueous solution, up to pH” value is on record as ≤ 12 pH. Further, in series [2], the cytotoxicity entry is “considerably less cytotoxic”.
